ChEMBL document CHEMBL3400033, “Molecular docking and antiviral activity of N-substituted benzyl/phenyl-2-(3,4-dimethyl-5,5-dioxidopyrazolo[4,3-c][1,2]benzothiazin-2(4H)-yl)acetamides” (Bioorg Med Chem Lett, 2015)

Experiments:
[1] = test system: Human immunodeficiency virus 1; experiment: Antiviral activity against HIV1 LAV-1 infected in human PBMC cells after 6 days by RT assay; type: functional, organism-based; details: Human immunodeficiency virus 1, LAV-1, PBMC, 144 h
PBMC = experiment: Cytotoxicity against human PBMC cells assessed as reduction in cell viability after 5 days by Cell Titer 96 Aqueous One Solution cell proliferation assay; type: cell-based; details: 120 h
CCRF-CEM = experiment: Cytotoxicity against human CEM cells assessed as reduction in cell viability after 5 days by Cell Titer 96 Aqueous One Solution cell proliferation assay; type: cell-based; details: 120 h
Vero = experiment: Cytotoxicity against african green monkey Vero cells assessed as reduction in cell viability after 5 days by Cell Titer 96 Aqueous One Solution cell proliferation assay; type: cell-based; details: Chlorocebus sabaeus, 120 h
[2] = test system: Human immunodeficiency virus 1; experiment: Antiviral activity against HIV1; type: functional, organism-based

Cc1c2c(nn1CC(=O)NCc1ccccc1F)-c1ccccc1S(=O)(=O)N2C
EC50 [1]: 57.5 µM | EC90 [1]: ≥ 100 µM | IC50 (PBMC): 87.5 µM | IC50 (CCRF-CEM): 82 µM | IC50 (Vero): 96.1 µM

Cc1c2c(nn1CC(=O)Nc1ccccc1Br)-c1ccccc1S(=O)(=O)N2C
EC50 [1]: 6.5 µM | EC90 [1]: 15.7 µM | IC50 (PBMC): 2.4 µM | IC50 (CCRF-CEM): 6 µM | IC50 (Vero): 8.2 µM

Cc1c2c(nn1CC(=O)Nc1cccc(Br)c1)-c1ccccc1S(=O)(=O)N2C
EC50 [1]: 6.3 µM | EC90 [1]: 15.3 µM | IC50 (PBMC): 8.1 µM | IC50 (CCRF-CEM): 5.2 µM | IC50 (Vero): 7.2 µM

COc1cccc(NC(=O)Cn2nc3c(c2C)N(C)S(=O)(=O)c2ccccc2-3)c1
EC50 [1]: 7.2 µM | EC90 [1]: 17.3 µM | IC50 (PBMC): 10.5 µM | IC50 (CCRF-CEM): 9.3 µM | IC50 (Vero): ≥ 100 µM

COc1ccc(NC(=O)Cn2nc3c(c2C)N(C)S(=O)(=O)c2ccccc2-3)c(OC)c1
EC50 [1]: > 100 µM | EC90 [1]: > 100 µM | IC50 (PBMC): > 100 µM | IC50 (CCRF-CEM): > 100 µM | IC50 (Vero): > 100 µM

Cc1c2c(nn1CC(=O)NCc1ccccc1Cl)-c1ccccc1S(=O)(=O)N2C
EC50 [1]: 15.9 µM | EC90 [1]: 28.5 µM | IC50 (PBMC): 74.2 µM | IC50 (CCRF-CEM): 68.4 µM | IC50 (Vero): 38.7 µM

Cc1c2c(nn1CC(=O)NCc1ccc(F)cc1)-c1ccccc1S(=O)(=O)N2C
EC50 [1]: 22.4 µM | EC90 [1]: ≥ 100 µM | IC50 (PBMC): > 100 µM | IC50 (CCRF-CEM): 41.9 µM | IC50 (Vero): > 100 µM

Cc1c2c(nn1CC(=O)NCc1ccccc1Br)-c1ccccc1S(=O)(=O)N2C
EC50 [1]: 16.7 µM | EC90 [1]: 87.5 µM | IC50 (PBMC): 63.1 µM | IC50 (CCRF-CEM): 38.1 µM | IC50 (Vero): 36.5 µM

COc1ccccc1CNC(=O)Cn1nc2c(c1C)N(C)S(=O)(=O)c1ccccc1-2
EC50 [1]: 17.2 µM | EC90 [1]: 60.3 µM | IC50 (PBMC): ≥ 100 µM | IC50 (CCRF-CEM): > 100 µM | IC50 (Vero): > 100 µM

COc1cccc(CNC(=O)Cn2nc3c(c2C)N(C)S(=O)(=O)c2ccccc2-3)c1
EC50 [1]: 21.1 µM | EC90 [1]: 92 µM | IC50 (PBMC): 18.7 µM | IC50 (CCRF-CEM): 28.8 µM | IC50 (Vero): 31.1 µM

COc1ccc(CNC(=O)Cn2nc3c(c2C)N(C)S(=O)(=O)c2ccccc2-3)cc1
EC50 [1]: 18.6 µM | EC90 [1]: ≥ 100 µM | IC50 (PBMC): > 100 µM | IC50 (CCRF-CEM): > 100 µM | IC50 (Vero): 73 µM

Cc1ccccc1CNC(=O)Cn1nc2c(c1C)N(C)S(=O)(=O)c1ccccc1-2
EC50 [1]: ≥ 100 µM | EC90 [1]: > 100 µM | IC50 (PBMC): > 100 µM | IC50 (CCRF-CEM): > 100 µM | IC50 (Vero): > 100 µM

Cc1ccc(CNC(=O)Cn2nc3c(c2C)N(C)S(=O)(=O)c2ccccc2-3)cc1
EC50 [1]: 9.9 µM | EC90 [1]: 77.7 µM | IC50 (PBMC): 52.2 µM | IC50 (CCRF-CEM): > 100 µM | IC50 (Vero): 63.1 µM

Cc1c2c(nn1CC(=O)Nc1ccccc1)-c1ccccc1S(=O)(=O)N2C
EC50 [1]: 6.8 µM | EC90 [1]: 16.3 µM | IC50 (PBMC): 7.7 µM | IC50 (CCRF-CEM): < 1 µM | IC50 (Vero): 6.8 µM

Cc1c2c(nn1CC(=O)Nc1ccccc1F)-c1ccccc1S(=O)(=O)N2C
EC50 [1]: 7.6 µM | EC90 [1]: 35.4 µM | IC50 (PBMC): 18 µM | IC50 (CCRF-CEM): 9.5 µM | IC50 (Vero): 28.2 µM

C/C(=N\NC(=O)CN1c2c(-c3ccccc3)n[nH]c2-c2ccccc2S1(=O)=O)c1cc(Cl)sc1Cl
EC50 [2]: 3.2 µM
